# Measured values published in PubChem BioAssay AID2060612 (Molecular Pharmacology Branch, DTP, NCI, 2025).
# Several values for one entry are separate records, joined by “and”; a condition that tells them apart may be missing. Equal values may be shown once.
# Test system: 565232-114-T-J1-PDC complex spheroid viability
# Test: Anticancer human tumor 565232-114-T-J1-PDC patient-derived bladder carcinoma cell line growth inhibition [CLK]
# Settings: for viability, T/C: stronger effect = lower value
# In short: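 Multi-cell-type spheroids combined patient-derived tumor cells with HUVEC endothelial cells and human mesenchymal stem cells. Paired agents were dosed in half-log steps down from about clinical Cmax, or from 10 microM where Cmax was unknown.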
# [1] = curve of first compound, second compound 0.0316 µM
# [2] = curve of first compound, second compound 0.1 µM
# [3] = curve of first compound, second compound 0.316 µM
# [4] = curve of first compound, second compound 1 µM
# [5] = curve of first compound, second compound 3.16 µM
# [6] = curve of first compound, second compound 10 µM
# [7] = second compound 0.0316 µM, first compound 0.0316 µM
# [8] = second compound 0.0316 µM, first compound 0.1 µM
# [9] = second compound 0.0316 µM, first compound 0.316 µM
# [10] = second compound 0.0316 µM, first compound 1 µM
# [11] = second compound 0.0316 µM, first compound 3.16 µM
# [12] = second compound 0.0316 µM, first compound 10 µM
# [13] = second compound 0.1 µM, first compound 0.0316 µM
# [14] = second compound 0.1 µM, first compound 0.1 µM
# [15] = second compound 0.1 µM, first compound 0.316 µM
# [16] = second compound 0.1 µM, first compound 1 µM
# [17] = second compound 0.1 µM, first compound 3.16 µM
# [18] = second compound 0.1 µM, first compound 10 µM
# [19] = second compound 0.316 µM, first compound 0.0316 µM
# [20] = second compound 0.316 µM, first compound 0.1 µM
# [21] = second compound 0.316 µM, first compound 0.316 µM
# [22] = second compound 0.316 µM, first compound 1 µM
# [23] = second compound 0.316 µM, first compound 3.16 µM
# [24] = second compound 0.316 µM, first compound 10 µM
# [25] = second compound 1 µM, first compound 0.0316 µM
# [26] = second compound 1 µM, first compound 0.1 µM
# [27] = second compound 1 µM, first compound 0.316 µM
# [28] = second compound 1 µM, first compound 1 µM
# [29] = second compound 1 µM, first compound 3.16 µM
# [30] = second compound 1 µM, first compound 10 µM
# [31] = second compound 3.16 µM, first compound 0.0316 µM
# [32] = second compound 3.16 µM, first compound 0.1 µM
# [33] = second compound 3.16 µM, first compound 0.316 µM
# [34] = second compound 3.16 µM, first compound 1 µM
# [35] = second compound 3.16 µM, first compound 3.16 µM
# [36] = second compound 3.16 µM, first compound 10 µM
# [37] = second compound 10 µM, first compound 0.0316 µM
# [38] = second compound 10 µM, first compound 0.1 µM
# [39] = second compound 10 µM, first compound 0.316 µM
# [40] = second compound 10 µM, first compound 1 µM
# [41] = second compound 10 µM, first compound 3.16 µM
# [42] = second compound 10 µM, first compound 10 µM
# 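Note: spheroids exposed to compounds for 7 days before readout.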
# 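Throughout, for viability, T/C: 100% = DMSO vehicle wells with luminescence normalized to vehicle control.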
smiles,measurement,setting,value
CC(Nc1ccc2c(c1)OCCn1cc(N3C(=O)OCC3C(F)F)nc1-2)C(N)=O (stereo not drawn) + CNC(=O)c1ccc(Nc2nc(OC3CCCC3)c3c(-c4ccc5nc(C)oc5c4)c[nH]c3n2)c(OC)c1,IC50,[1],> 10 µM
same,IC50,[2],< 0.0316 µM
same,IC50,[3],< 0.0316 µM
same,IC50,[4],< 0.0316 µM
same,IC50,[5],< 0.0316 µM
same,IC50,[6],< 0.0316 µM
same,"viability, T/C",[7],87.5%
same,"viability, T/C",[8],93.6%
same,"viability, T/C",[9],88.1%
same,"viability, T/C",[10],100%
same,"viability, T/C",[11],101%
same,"viability, T/C",[12],101%
same,"viability, T/C",[13],35.1%
same,"viability, T/C",[14],34.1%
same,"viability, T/C",[15],37.4%
same,"viability, T/C",[16],39.9%
same,"viability, T/C",[17],33.6%
same,"viability, T/C",[18],29.2%
same,"viability, T/C",[19],21.4%
same,"viability, T/C",[20],20.2%
same,"viability, T/C",[21],23.8%
same,"viability, T/C",[22],23.7%
same,"viability, T/C",[23],19.9%
same,"viability, T/C",[24],18%
same,"viability, T/C",[25],15.5%
same,"viability, T/C",[26],15.3%
same,"viability, T/C",[27],12.6%
same,"viability, T/C",[28],14.9%
same,"viability, T/C",[29],13.1%
same,"viability, T/C",[30],9.75%
same,"viability, T/C",[31],9.27%
same,"viability, T/C",[32],10.4%
same,"viability, T/C",[33],9.44%
same,"viability, T/C",[34],10.1%
same,"viability, T/C",[35],6.97%
same,"viability, T/C",[36],10.2%
same,"viability, T/C",[37],12.9%
same,"viability, T/C",[38],10.9%
same,"viability, T/C",[39],13.1%
same,"viability, T/C",[40],9.16%
same,"viability, T/C",[41],7.38%
same,"viability, T/C",[42],5.93%
CC1(C)CCC(CN2CCN(c3ccc(C(=O)NS(=O)(=O)c4ccc(NCC5CCOCC5)c([N+](=O)[O-])c4)c(Oc4cnc5[nH]ccc5c4)c3)CC2)=C(c2ccc(Cl)cc2)C1 + CNC(=O)c1ccc(Nc2nc(OC3CCCC3)c3c(-c4ccc5nc(C)oc5c4)c[nH]c3n2)c(OC)c1,IC50,[1],8.79 µM
same,IC50,[2],2.34 µM
same,IC50,[3],< 0.0316 µM
same,IC50,[4],< 0.0316 µM
same,IC50,[5],< 0.0316 µM
same,IC50,[6],< 0.0316 µM
same,"viability, T/C",[7],82.7%
same,"viability, T/C",[8],93.9%
same,"viability, T/C",[9],95.7%
same,"viability, T/C",[10],95.2%
same,"viability, T/C",[11],92.7%
same,"viability, T/C",[12],44.7%
same,"viability, T/C",[13],60.2%
same,"viability, T/C",[14],55.1%
same,"viability, T/C",[15],52.6%
same,"viability, T/C",[16],53.6%
same,"viability, T/C",[17],49.4%
same,"viability, T/C",[18],30.5%
same,"viability, T/C",[19],37.3%
same,"viability, T/C",[20],38.1%
same,"viability, T/C",[21],39.3%
same,"viability, T/C",[22],33.5%
same,"viability, T/C",[23],32.7%
same,"viability, T/C",[24],23.7%
same,"viability, T/C",[25],21.2%
same,"viability, T/C",[26],23.3%
same,"viability, T/C",[27],25.4%
same,"viability, T/C",[28],26.6%
same,"viability, T/C",[29],28.7%
same,"viability, T/C",[30],20.6%
same,"viability, T/C",[31],22%
same,"viability, T/C",[32],20.8%
same,"viability, T/C",[33],23.6%
same,"viability, T/C",[34],20.8%
same,"viability, T/C",[35],20.8%
same,"viability, T/C",[36],17.1%
same,"viability, T/C",[37],21.5%
same,"viability, T/C",[38],19.9%
same,"viability, T/C",[39],18.5%
same,"viability, T/C",[40],21.1%
same,"viability, T/C",[41],20.1%
same,"viability, T/C",[42],16.5%
O=c1[nH]cc(F)c(=O)[nH]1 + CN1CCN(c2cc(C(=O)Nc3cc4cc(-c5cnn(C)c5)ccc4cn3)ccn2)CC1,IC50,[1],> 10 µM
same,IC50,[2],> 10 µM
same,IC50,[3],< 0.0316 µM
same,IC50,[4],< 0.0316 µM
same,IC50,[5],< 0.0316 µM
same,IC50,[6],< 0.0316 µM
same,"viability, T/C",[7],95.6%
same,"viability, T/C",[8],77.4%
same,"viability, T/C",[9],105%
same,"viability, T/C",[10],106%
same,"viability, T/C",[11],123%
same,"viability, T/C",[12],113%
same,"viability, T/C",[13],90.5%
same,"viability, T/C",[14],83.1%
same,"viability, T/C",[15],101%
same,"viability, T/C",[16],130%
same,"viability, T/C",[17],171%
same,"viability, T/C",[18],120%
same,"viability, T/C",[19],16.8%
same,"viability, T/C",[20],18.7%
same,"viability, T/C",[21],22.1%
same,"viability, T/C",[22],22.7%
same,"viability, T/C",[23],19.2%
same,"viability, T/C",[24],17.1%
same,"viability, T/C",[25],0.2%
same,"viability, T/C",[26],0.42%
same,"viability, T/C",[27],0.17%
same,"viability, T/C",[28],0.16%
same,"viability, T/C",[29],1.57%
same,"viability, T/C",[30],0.22%
same,"viability, T/C",[31],0.2%
same,"viability, T/C",[32],0.14%
same,"viability, T/C",[33],1.23%
same,"viability, T/C",[34],0.14%
same,"viability, T/C",[35],1.73%
same,"viability, T/C",[36],1.38%
same,"viability, T/C",[37],0.13%
same,"viability, T/C",[38],0.29%
same,"viability, T/C",[39],0.25%
same,"viability, T/C",[40],0.15%
same,"viability, T/C",[41],0.19%
same,"viability, T/C",[42],1.01%
C=CC(=O)Nc1cc(Nc2nccc(-c3cn(C)c4ccccc34)n2)c(OC)cc1N(C)CCN(C)C,"viability, T/C",compound 0.000949 µM,93.7% and 95.9%
same,"viability, T/C",compound 0.003 µM,76% and 82.3%
same,"viability, T/C",compound 0.00949 µM,101% and 91.3%
same,"viability, T/C",compound 0.03 µM,104% and 89.6%
same,"viability, T/C",compound 0.0949 µM,87.5% and 109%
same,"viability, T/C",compound 0.3 µM,112% and 110%
same,IC50,curve of compound,> 0.3 µM
